# Test results as given in patent US20150218523A1, “MANUFACTURE OF VASCULAR SMOOTH MUSCLE CELLS AND THE USE” (Agency for Science, Technology and Research, priority 2014, published 2015).
# Assays:
# SMC subtypes = test: SMC contraction study; assay type: cell-based, human; details: angiotensin II 0.5 μM, 10 min, all SMC subtypes, n=30
# Description: SMCs were preloaded with the calcium-sensitive fluorophore, Fluo-4 AM (2.5 μM; Molecular Probes) at 37° C. for an hour. Contraction was induced by treating the cells with angiotensin II (0.5 μM, Sigma). Contraction pictures and intracellular calcium flux videos of SMCs were acquired by a time-lapse microscope live cell imaging microscope (Zeiss Axiovert 200M) during 10 minutes of angiotensin II treatment. Change of cell surface area was assessed by ImageJ software.
# [1] = test system: NCSMCs derived from hESC (H9); details: NCSMCs at 1% oxygen, drug 48 hr (minocycline 5 μM, losartan 5 μM), then labeled Aβ for 1 hr
# Description: NCSMCs and BVSMCs were routinely cultured at 21% oxygen and 1% oxygen to simulate normoxic and chronic hypoxic conditions, respectively. Twenty one percent O2 SMCs were seeded at 30,000 cells/well onto 96-well plate as positive controls. One percent O2 SMCs were seeded at the same density as negative controls and experimental samples for drug treatment on the same plate. The 96-well plate was incubated at 37° C. overnight at 21% O2. After cell attachment, 2 mg/ml of fluorescently labeled amyloid peptide (Aβ42-Hilyte Fluor 555 or Aβ40-Hilyte Fluor 488, Anaspec) was added to SMCs for a 1 hr uptake at 37° C. After Aβ uptake, cells were dissociated into single-cell suspension for high-throughput flow cytometry by LSRFortessa plate analyzer. Respective Z factors for NCSMC and BVSMC Aβ uptake assays were calculated based on their mean fluorescence brightness (normalized to no-uptake controls) and SDs of positive (21% O2) and negative (1% O2) controls. […] Mean fluorescence brightness signals (normalized to no-uptake control) indicated the degree of amyloid uptake.
# NCSMC were treated with the following reference compounds for 48 hours at 37° C. prior to Aβ uptake. […]
# The NCSMC and BVSMC cultures were scaled down to 96-well format. […] Cells were incubated with labeled Aβ40 and Aβ42 (2 mg/ml) for an hour and subsequently evaluated by high-throughput flow cytometry.
Molecule,Reduction of cell surface area in contracting SMCs (SMC subtypes),Effect on Aβ uptake (Aβ40 and Aβ42) over the vehicle control [1]
"angiotensin II (DRVYIHPF; Angiotensin-2; UniProt P01019 25-32, looked up) [vasoconstrictor, an inducer of contraction (0.5 μM, Sigma)]",18%-21%,–
CCCCc1nc(Cl)c(CO)n1Cc1ccc(-c2ccccc2-c2nn[nH]n2)cc1 [losartan],–,may not have any apparent effect
